Results: PubChem BioAssay (NCI)
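Compound exposure: 48 hours, 5 concentrations, 96-well plates. Abbreviation: GI50, concentration required for 50% inhibition of growth. The concentration for full growth arrest is given as TGI.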

Tests used:
Test in all cases: NCI-60 cell line screen, 48 h
[1] = system: 786-0 renal
[2] = system: A498 renal
[3] = system: A549 NSCLC
[4] = system: ACHN renal
[5] = system: BT-549 breast
[6] = system: CAKI-1 renal
[7] = system: CCRF-CEM leukemia
[8] = system: COLO 205 colon
[9] = system: DU-145 prostate
[10] = system: EKVX NSCLC
[11] = system: HCC-2998 colon
[12] = system: HCT-116 colon
[13] = system: HCT-15 colon
[14] = system: HL-60(TB) leukemia
[15] = system: HOP-62 NSCLC
[16] = system: HOP-92 NSCLC
[17] = system: HS 578T breast
[18] = system: HT29 colon
[19] = system: IGROV1 ovarian
[20] = system: K-562 leukemia
[21] = system: KM12 colon
[22] = system: LOX IMVI melanoma
[23] = system: M14 melanoma
[24] = system: MALME-3M melanoma
[25] = system: MCF7 breast
[26] = system: MDA-MB-231 breast
[27] = system: MDA-MB-435
[28] = system: MDA-MB-468 breast
[29] = system: MOLT-4 leukemia
[30] = system: NCI-H226 lung
[31] = system: NCI-H23 lung
[32] = system: NCI-H460 lung
[33] = system: NCI-H522 lung
[34] = system: NCI/ADR-RES ovarian
[35] = system: OVCAR-3 ovarian
[36] = system: OVCAR-4 ovarian
[37] = system: OVCAR-5 ovarian
[38] = system: OVCAR-8 ovarian
[39] = system: PC-3 prostate
[40] = system: RPMI-8226 leukemia
[41] = system: RXF 393 renal
[42] = system: SF-268 CNS
[43] = system: SF-295 CNS
[44] = system: SF-539 CNS
[45] = system: SK-MEL-2 melanoma
[46] = system: SK-MEL-28 melanoma
[47] = system: SK-MEL-5 melanoma
[48] = system: SK-OV-3 ovarian
[49] = system: SN12C renal
[50] = system: SNB-19 CNS
[51] = system: SNB-75 CNS
[52] = system: SR leukemia
[53] = system: SW-620 colon
[54] = system: T-47D breast
[55] = system: TK-10 renal
[56] = system: U251 CNS
[57] = system: UACC-257 melanoma
[58] = system: UACC-62 melanoma
[59] = system: UO-31 renal

`CCCn1c(=O)c2[nH]c(-c3ccc(OCc4nc5ccc(C)cc5[nH]4)cc3)nc2n(CCC)c1=O` showed a GI50 [1] of 3.06 µM, a TGI [1] of 12.1 µM and a GI50 [2] of 2.43 µM. The TGI [2] was 10.6 µM, the GI50 [3] was 13.5 µM and the TGI [3] was greater than 100 µM. It also gave a GI50 [4] of 3.29 µM, a TGI [4] of 13.4 µM and a GI50 [5] of 14 µM. It also gave a TGI [5] of 46.7 µM, a GI50 [6] of 4.55 µM and a TGI [6] of 25.1 µM. For the same compound, the GI50 [7] was 32.8 µM, the TGI [7] was greater than 100 µM and the GI50 [8] was 84.7 µM. It also gave a TGI [8] greater than 100 µM, a GI50 [9] of 66.4 µM and a TGI [9] greater than 100 µM. The GI50 [10] was 20.7 µM, the TGI [10] was greater than 100 µM and the GI50 [11] was 29 µM. It also gave a TGI [11] greater than 100 µM, a GI50 [12] of 11.3 µM and a TGI [12] of 27.8 µM. It also gave a GI50 [13] of 14.7 µM, a TGI [13] greater than 100 µM and a GI50 [14] of 46.2 µM. For the same compound, the TGI [14] was greater than 100 µM, the GI50 [15] was 4.12 µM and the TGI [15] was 16.9 µM. The GI50 [16] was 2.29 µM, the TGI [16] was 9.1 µM and the GI50 [17] was 2.36 µM. For the same compound, the TGI [17] was 11.1 µM, the GI50 [18] was 29.6 µM and the TGI [18] was greater than 100 µM. It also gave a GI50 [19] of 10.1 µM, a TGI [19] of 38.7 µM and a GI50 [20] of 22.3 µM. The TGI [20] was greater than 100 µM, the GI50 [21] was greater than 100 µM and the TGI [21] was greater than 100 µM. For the same compound, the GI50 [22] was 4.72 µM, the TGI [22] was 17.3 µM and the GI50 [23] was 21.3 µM. The TGI [23] was greater than 100 µM, the GI50 [24] was 7.28 µM and the TGI [24] was 20.5 µM. For the same compound, the GI50 [25] was 7.35 µM, the TGI [25] was 36.6 µM and the GI50 [26] was 3.48 µM. It also gave a TGI [26] of 14.5 µM, a GI50 [27] of 31 µM and a TGI [27] greater than 100 µM. The GI50 [28] was 8.62 µM, the TGI [28] was 27.6 µM and the GI50 [29] was 12.2 µM. The TGI [29] was greater than 100 µM, the GI50 [30] was 2.91 µM and the TGI [30] was 13.2 µM. For the same compound, the GI50 [31] was 12 µM, the TGI [31] was 24.4 µM and the GI50 [32] was 6.04 µM. It also gave a TGI [32] of 23.1 µM, a GI50 [33] of 17.2 µM and a TGI [33] of 42.3 µM. For the same compound, the GI50 [34] was 11 µM, the TGI [34] was 64.5 µM and the GI50 [35] was 8.62 µM. It also gave a TGI [35] of 85.9 µM, a GI50 [36] of 2.73 µM and a TGI [36] greater than 100 µM. It also gave a GI50 [37] of 18.5 µM, a TGI [37] of 76.8 µM and a GI50 [38] of 5.3 µM. The TGI [38] was 24.8 µM, the GI50 [39] was 9.66 µM and the TGI [39] was greater than 100 µM. For the same compound, the GI50 [40] was 9.71 µM, the TGI [40] was greater than 100 µM and the GI50 [41] was 1.62 µM. For the same compound, the TGI [41] was 5.12 µM, the GI50 [42] was 12.6 µM and the TGI [42] was greater than 100 µM. The GI50 [43] was 2.65 µM, the TGI [43] was 13.1 µM and the GI50 [44] was 2.61 µM. The TGI [44] was 7.98 µM, the GI50 [45] was 16.8 µM and the TGI [45] was 33.2 µM. It also gave a GI50 [46] of 15.9 µM, a TGI [46] greater than 100 µM and a GI50 [47] of 13.7 µM. The TGI [47] was 31.5 µM, the GI50 [48] was 12.1 µM and the TGI [48] was 27 µM. For the same compound, the GI50 [49] was 3.78 µM, the TGI [49] was 18.1 µM and the GI50 [50] was 6 µM. For the same compound, the TGI [50] was 28.6 µM, the GI50 [51] was 1.54 µM and the TGI [51] was 4.62 µM. For the same compound, the GI50 [52] was greater than 100 µM, the TGI [52] was greater than 100 µM and the GI50 [53] was 32.5 µM. The TGI [53] was greater than 100 µM, the GI50 [54] was 16.9 µM and the TGI [54] was 47.2 µM. For the same compound, the GI50 [55] was 10.7 µM, the TGI [55] was 23.1 µM and the GI50 [56] was 4.06 µM. It also gave a TGI [56] of 17 µM, a GI50 [57] of 40.9 µM and a TGI [57] greater than 100 µM. It also gave a GI50 [58] of 10 µM, a TGI [58] of 25.6 µM and a GI50 [59] of 1.98 µM. The TGI [59] was 7.27 µM.
